The values below come from DBAASP.

SMILES strings stand for the structures. Converted amounts (≈) assume the structure as drawn.

Holding throughout (assay): ≥ marks a high value that may be exact or a test limit, other limits are often not marked, values filed in µg/mL are converted to µM
For experiment [1], the system named is Neurospora crassa CBS 327-54.
Experiment [2] deals with Aspergillus fumigatus.
For experiment [3], the system named is Fusarium oxysporum MUCL 909.
For experiment [4], the system named is Fusarium culmorum MUCL 30162.
In experiment [5] the test system is Alternaria brassicicola MUCL 20297.
Experiment [6] has as its system Fusarium haematococcum 160.2.2.
Experiment [7] relates to Trichophyton mentagrophytes.
Experiment [8] concerns Micrococcus luteus ATCC 9341.
For experiment [9], the system named is Staphylococcus aureus ATCC 6538.
The test system of experiment [10] is Pseudomonas aeruginosa ATCC 9027.
For experiment [11], the system named is Escherichia coli ATCC 2592.
Experiment [12] concerns Candida albicans ATCC 3623.
For experiment [13], the system named is Brucella abortus 9.49 (per-).
Experiment [14] concerns Staphylococcus aureus ΔmprFpRBsyn.
Experiment [15] relates to Pseudomonas aeruginosa CUN 4158-02.
Experiment [16] has as its system Staphylococcus aureus ΔmprF.
The test system of experiment [17] is Escherichia coli ATCC 25922.
In experiment [18] the test system is Bordetella bronchiseptica CUN 11844-99.
For experiment [19], the system named is Staphylococcus aureus.
The subject of experiment [20] is Yersinia pestis KIM pYV.
For experiment [21], the system named is Acinetobacter baumannii ATCC 19606.
Experiment [22] deals with Staphylococcus aureus ATCC 43300.

In the case of `CC[C@H](C)[C@H](NC(=O)[C@H](CO)NC(=O)[C@H](CC(C)C)NC(=O)[C@@H](NC(=O)[C@@H](N)CCCN=C(N)N)[C@@H](C)CC)C(=O)N[C@@H](CC(C)C)C(=O)N[C@@H](CCCN=C(N)N)C(=O)N[C@@H](Cc1cnc[nH]1)C(=O)N[C@@H](CCC(N)=O)C(=O)N[C@@H](CC(N)=O)C(=O)N[C@@H](CC(C)C)C(=O)N[C@@H](CC(C)C)C(=O)N[C@@H](CCCCN)C(=O)N[C@@H](CCC(=O)O)C(=O)N[C@@H](CC(C)C)C(=O)N[C@@H](CCC(N)=O)C(=O)N[C@@H](CC(=O)O)C(=O)N[C@@H](CC(C)C)C(=O)N[C@@H](C)C(=O)N[C@@H](CC(C)C)C(=O)N[C@@H](CCC(N)=O)C(=O)NCC(=O)N[C@@H](C)C(=O)N[C@@H](CCCCN)C(=O)O` [RILSILRHQNLLKELQDLALQGAK], the MIC in experiment [1] was determined as 5 µM (≈ 13.9 µg/mL); in experiment [2] it was 30 µM (≈ 83.1 µg/mL); in experiment [3] it was 30 µM (≈ 83.1 µg/mL); in experiment [4] it was 10 µM (≈ 27.7 µg/mL); in experiment [5] it was 10 µM (≈ 27.7 µg/mL); in experiment [6] it was 7 µM (≈ 19.4 µg/mL). In addition, in [7], the MIC is 30 µM (≈ 83.1 µg/mL).
For `CC(C)C[C@H](NC(=O)[C@H](CC(C)C)NC(=O)[C@H](CCCCN)NC(=O)[C@H](CC(C)C)NC(=O)[C@H](CC(C)C)NC(=O)[C@H](CC(C)C)NC(=O)[C@H](CCCCN)NC(=O)[C@H](CC(C)C)NC(=O)[C@H](CC(C)C)NC(=O)[C@H](CC(C)C)NC(=O)[C@@H](N)CCCCN)C(=O)N[C@@H](CCCCN)C(N)=O` [KLLLKLLLKLLK], the minimal inhibitory concentration (MIC) amounted to 4.39 µM (≈ 6.3 µg/mL) in experiment [8]; 11.6 µM (≈ 16.7 µg/mL) in experiment [9]; 8.7 µM (≈ 12.5 µg/mL) in experiment [10]; 11.6 µM (≈ 16.7 µg/mL) in [11]; 4.39 µM (≈ 6.3 µg/mL) in [12].
For `CC[C@H](C)[C@H](NC(=O)[C@H](CCCN=C(N)N)NC(=O)[C@H](CCCN=C(N)N)NC(=O)[C@H](CC(C)C)NC(=O)[C@H](Cc1ccccc1)NC(=O)[C@@H](NC(=O)[C@H](CCCN=C(N)N)NC(=O)[C@H](CCSC)NC(=O)[C@@H](NC(=O)[C@H](CCCCN)NC(=O)[C@H](CCCCN)NC(=O)[C@H](CO)NC(=O)[C@@H](NC(=O)CNC(=O)[C@H](CCCN=C(N)N)NC(=O)[C@H](CC(C)C)NC(=O)[C@@H](NC(=O)[C@@H](N)CCCCN)[C@@H](C)CC)C(C)C)[C@@H](C)CC)[C@@H](C)O)C(=O)N[C@@H](CO)C(=O)N[C@@H](CCCCN)C(=O)N[C@@H](CC(=O)O)C(=O)N[C@H](C(=O)N[C@@H](CC(C)C)C(=O)N[C@H](C(=O)NCC(=O)N[C@@H](CCCCN)C(=O)N[C@@H](CCCCN)C(N)=O)[C@@H](C)O)[C@@H](C)CC` [KILRGVSKKIMRTFLRRISKDILTGKK], the MIC in experiment [13] was determined as 0.628 µM (≈ 2 µg/mL); in experiment [14], 1.26 µM (≈ 4 µg/mL); in [15] it was 1.26 µM (≈ 4 µg/mL); in [16], 1.26 µM (≈ 4 µg/mL); in experiment [17] it was 1.26 µM (≈ 4 µg/mL); in experiment [18] it was 1.26 µM (≈ 4 µg/mL). The minimal inhibitory concentration (MIC) was 20.1 µM (≈ 64 µg/mL) in [19], 5.02 µM (≈ 16 µg/mL) in experiment [20], 0.628 µM (≈ 2 µg/mL) in experiment [21] and 40.2 µM (≈ 128 µg/mL) in [22].
